Experimental data as given in article PMC6286779, “HLA-A2-Restricted Epitopes Identified from MTA1 Could Elicit Antigen-Specific Cytotoxic T Lymphocyte Response” (Journal of Immunology Research, 2018).

Assays:
HLA-A*0201 molecules = HLA-A*0201 molecules (Homo sapiens, UniProt P04439, D140Y/D185E/D98H/E176V/E277Q/G131W/G231S/I119V/I121R/I166T/I218V/L300P/L318F/N151K/N90K/P208A/P217A/Q86G/Q94H/R138H/R169H/T345S); test: T2 binding assay; details: T2 cells 1 × 10^6 cells/ml, peptide 50 μg/ml, 3 μg/ml β2-M, serum-free RPMI 1640, 18 h, 37°C; BB7.2 staining, flow cytometry; FI > 1.5 = high affinity
Method: The binding affinity of these peptides to HLA-A^∗0201 was evaluated according to our previous study. Briefly, T2 cells (1 × 10^6 cells/ml) were incubated with each peptide (50 μg/ml) and 3 μg/ml human β2-microglobulin (β2-M, Merck, Germany) in serum-free RPMI 1640 medium for 18 h at 37°C in a humidified atmosphere of 5% CO2. Then cells were washed twice and incubated with the anti-human HLA-A2 PE-Cyanine7 mAb, BB7.2 (eBioscience, USA) for 0.5 h at 4°C. Finally, cells were collected, washed, and analyzed using flow cytometry (FACSCalibur, Becton Dickinson, USA). The fluorescence index (FI) calculation was performed as follows: FI = [(mean fluorescence intensity (MFI) of the given peptide − background) − (MFI of the PBS control group − background)]/[(MFI of the PBS control group − background)]. The MFI value of cells untreated with peptides and antibodies was employed as background. Peptides with an FI factor of more than 1.5 were classed as high-affinity candidates.

[1] = test system: HLA-A2.1/K^b transgenic mice; test: IFN-γ ELISPOT of CTLs induced in HLA-A2.1/Kb transgenic mice; assay type: in vivo; details: HLA-A2.1/Kb transgenic mice immunized with peptide; stimulators peptide-pulsed T2 cells
Method: (§1) In vivo induction of peptide-specific CTLs was performed as previously described. Briefly, peptide (100 μg) and the IA^b-restricted HBV-core128 T helper epitope (140 μg) emulsified in incomplete Freund's adjuvant (IFA) were used to subcutaneously immunize at the base of the tail of HLA-A2.1/K^b transgenic mice three times on days 0, 5, and 10. On day 11, all mice were sacrificed through cervical dislocation. Spleen lymphocytes were isolated and restimulated once with 10 μg/ml peptide and 10 U/ml mIL-2 in vitro for an additional 6 days. LDH and IFN-γ ELISPOT assays were performed on day 6 after in vitro stimulation. E/T ratios used in the LDH assay were 20 : 1, 40 : 1, and 80 : 1.
The ELISPOT assay was performed using a commercial kit (Dakewe, China) according to the procedures previously described. Briefly, T2 cells incubated with/without candidate peptide (50 μg/ml) were used as the stimulating cells, effector cells (1 × 10^5) and stimulator cells (peptide-pulsed T2 cells or T2 cells only, 1 × 10^5) were seeded into the 96-well plate precoated with an anti-human (or anti-mouse) IFN-γ antibody. After incubation at 37°C for 18 h, cells were removed, and plates were processed for analysis as instructed. The spot number was determined automatically using a computer-assisted spot analyzer (Dakewe, China).

[2] = test system: T2 cells pulsed with each peptide; test: LDH cytotoxicity assay, CTLs induced in HLA-A2.1/Kb transgenic mice; assay type: in vivo, human; details: 100 μg peptide + 140 μg T helper epitope in IFA s.c. days 0, 5, 10, splenocytes restimulated 6 days, E/T 50 : 1, n = 5
Method: as §1, with “E/T ratios used in the LDH assay were 20 : 1, 40 : 1, and 80 : 1.” left out
(§2) Cytotoxic activity of induced T cells was tested based on the quantitation of LDH release using the nonradioactive cytotoxicity assay kit (Promega, USA) at the gradient E/T ratio [29, 31]. Target cells which expressed different levels of MTA1 or peptide-pulsed T2 cells were used as target cells. The anti-human HLA-A2 antibody (BB7.2) was added 30 min before adding effector cells to determine the HLA restriction. Target cells (5 × 10^3/well) were cocultured with the effector cells at 37°C for 4 h. The percentage of specific lysis of the target cells was determined using the equation: percentage of specific lysis = [(experimental release − effector spontaneous release − target spontaneous release)/(target maximum release − target spontaneous release)] × 100.

MCF-7 (HLA-A2+, MTA1+) = test: LDH cytotoxicity assay, CTLs induced in vitro; assay type: cell-based, human; details: peptide-induced CTLs from healthy donors, E/T 50 : 1
Method: (§3) CTL induction in vitro was conducted according to the procedures previously described. Briefly, PBMCs from eight HLA-A^∗02^+ healthy donors were isolated using Ficoll-Paque density gradient centrifugation and resuspended in RPMI 1640 medium supplemented with 10% FBS. Then, PBMCs were stimulated three times (once a week) with the indicated peptides (10 μg/ml) or protein MTA1(1–283) (at final concentrations of 0, 1, 10, 30, and 50 μg/ml) for 21 days. Human recombinant cytokine interleukin-2 (IL-2) (50 U/ml) was added on day 3 and 1 day after each stimulation. The cytotoxic assay (lactate dehydrogenase (LDH) assay) and IFN-γ secretion enzyme-linked immunospot (ELISPOT) assay were performed on day 21.
as §2

SW620 (HLA-A2+, MTA1+) = test: LDH cytotoxicity assay, CTLs induced in vitro; assay type: cell-based, human; details: CTLs induced by peptide 10 μg/ml from donor no. 6; E/T 50 : 1; LDH release, 4 h; n = 3
Method: as §3, §2

[3] = test system: MDA-MB-231 (HLA-A2+, MTA1+); test: LDH cytotoxicity assay, CTLs induced in vitro; assay type: cell-based, human; details: CTLs induced by peptide 10 μg/ml from donor no. 6; E/T 50 : 1; LDH release, 4 h; n = 3
Method: as §3, §2

HT-29 (HLA-A2−, MTA1+) = test: LDH cytotoxicity assay, CTLs induced in vitro; assay type: cell-based, human; details: peptide-induced CTLs, HLA-A2-negative control target
Method: as §3, §2

Sequence | FI (fluorescence index) (HLA-A*0201 molecules) | IFN-γ production, ELISPOT, CTLs induced in vivo [1] | lysis rate of peptide-pulsed T2 target cells, CTLs induced in vivo [2] [%] | rate of MCF-7 cell lysis (MCF-7 (HLA-A2+, MTA1+)) [%] | lysis rate of SW620 cells (SW620 (HLA-A2+, MTA1+)) [%] | lysis rate of MDA-MB-231 cells [3] [%] | lysis of HT-29 cells (HT-29 (HLA-A2−, MTA1+))
YLIRRIEEL [Peptide P22] | 2.08 | greater production of IFN-γ compared with the other peptides | 22.43 | 16.0 | 71.4 | 24.8 | did not lyse
TLLNETESL [Peptide P129] | 1.28 | greater production of IFN-γ compared with the other peptides | 31.6 | 9.34 | 38.4 | 14.1 | did not lyse
